The record followed here is PubChem BioAssay (NCI).

Among the test systems are 786-0 renal; A549 NSCLC; CCRF-CEM leukemia; COLO 205 colon; HCC-2998 colon; HOP-62 NSCLC; MDA-N; MOLT-4 leukemia; NCI-H23 lung; OVCAR-5 ovarian; PC-3 prostate; SN12C renal; SNB-75 CNS; UACC-257 melanoma; UACC-62 melanoma.
What all share (assay): DTP human tumour cell line panel, 48 h

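Assay format: 96-well plates, 48-hour exposure. Definition used: TGI = concentration required for complete inhibition of growth.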

A word on the TGI: it is the concentration at which net growth stops. The low end stands for more potent growth arrest, the high end for less potent growth arrest.

For `COc1ccc(/C=C/C(=O)NCC(NC(=O)/C=C/c2ccc(OC)c(OC)c2)C(=O)O)cc1OC` (stereo not given), the TGI in the experiment with 786-0 renal, in the experiment on A549 NSCLC, in the experiment on CCRF-CEM leukemia, with COLO 205 colon, in the experiment on HCC-2998 colon and in the experiment with HOP-62 NSCLC was greater than 100 µM each time. Also, the TGI with MDA-N, in the experiment on MOLT-4 leukemia, in the experiment on NCI-H23 lung, in the experiment on OVCAR-5 ovarian, in the experiment with PC-3 prostate and with SN12C renal was greater than 100 µM each time. Further, the TGI in the experiment with SNB-75 CNS, with UACC-257 melanoma and in the experiment with UACC-62 melanoma was greater than 100 µM each time.
Take `N[C@@H]1C[C@H](N)c2c(Cl)sc(Cl)c21`: the TGI with 786-0 renal, in the experiment with A549 NSCLC, in the experiment with CCRF-CEM leukemia, in the experiment on COLO 205 colon, with HCC-2998 colon and in the experiment with HOP-62 NSCLC was greater than 100 µM each time. For the same compound, the concentration for total growth inhibition (TGI) in the experiment on MDA-N, with MOLT-4 leukemia, with NCI-H23 lung, in the experiment on OVCAR-5 ovarian, in the experiment with PC-3 prostate and with SN12C renal was greater than 100 µM throughout. Further, the TGI in the experiment on SNB-75 CNS, in the experiment on UACC-257 melanoma and with UACC-62 melanoma was greater than 100 µM in each case.
With `Cc1sc2ncnc(NCCc3ccccc3)c2c1C`, the TGI in the experiment with 786-0 renal was 45.7 µM; in the experiment on A549 NSCLC, 83 µM; with CCRF-CEM leukemia, 49.3 µM; in the experiment on COLO 205 colon, 24.4 µM; with HCC-2998 colon, 31.1 µM; with HOP-62 NSCLC, 33.8 µM. In addition, the TGI was found to be 23.8 µM with MDA-N; 63.8 µM in the experiment on MOLT-4 leukemia; 36 µM with NCI-H23 lung; 35.8 µM in the experiment on OVCAR-5 ovarian; 40.3 µM in the experiment on PC-3 prostate; 28.3 µM in the experiment on SN12C renal. Moreover, the total growth inhibition concentration (TGI) turned out to be 53.5 µM in the experiment with SNB-75 CNS, 17.3 µM with UACC-257 melanoma and 24.6 µM in the experiment with UACC-62 melanoma.
Take `O=C(CNC(=O)OCc1ccccc1)NCCCCC(NC(=O)OCc1ccccc1)C(=O)O` (stereo not given): the TGI in the experiment with 786-0 renal, with A549 NSCLC, in the experiment on CCRF-CEM leukemia, in the experiment on COLO 205 colon, in the experiment with HCC-2998 colon and in the experiment with HOP-62 NSCLC was greater than 100 µM each time. The TGI in the experiment with MDA-N, with MOLT-4 leukemia, with NCI-H23 lung, with OVCAR-5 ovarian, in the experiment with PC-3 prostate and in the experiment on SN12C renal was greater than 100 µM in each case. The TGI with SNB-75 CNS, in the experiment on UACC-257 melanoma and with UACC-62 melanoma was greater than 100 µM each time.
On to `Cn1c(=O)nc2n(CCO)c(-c3ccccc3)c(-c3ccccc3)nc-2c1=O`, for which the TGI with 786-0 renal, in the experiment with A549 NSCLC, in the experiment with CCRF-CEM leukemia, in the experiment on COLO 205 colon, in the experiment on HCC-2998 colon and with HOP-62 NSCLC was greater than 100 µM each time. Also, the total growth inhibition concentration (TGI) in the experiment with MDA-N, in the experiment with MOLT-4 leukemia, with NCI-H23 lung, in the experiment with OVCAR-5 ovarian, in the experiment with PC-3 prostate and in the experiment on SN12C renal was greater than 100 µM in each case. Besides, the TGI in the experiment on SNB-75 CNS, with UACC-257 melanoma and in the experiment on UACC-62 melanoma was greater than 100 µM in each case.
As to `CCN(CC)c1ccc(/C=C/C2=NN(c3cccc(S(=O)(=O)O)c3)C3(C2)C(Cl)C(=O)N3c2nc3ccccc3s2)cc1` (stereo not given), the TGI with 786-0 renal came out at 15.9 µM; in the experiment with A549 NSCLC it was 28.7 µM; with CCRF-CEM leukemia it was 4.47 µM; in the experiment on COLO 205 colon it was 31.8 µM; with HCC-2998 colon, 21.4 µM; with HOP-62 NSCLC, 22.9 µM. For the same compound, the concentration for total growth inhibition (TGI) in the experiment on MDA-N was 30 µM; in the experiment with MOLT-4 leukemia it was 13.9 µM; in the experiment with NCI-H23 lung it was 22.8 µM; in the experiment on OVCAR-5 ovarian, 58.7 µM; in the experiment with PC-3 prostate, 25.1 µM; with SN12C renal, 29 µM. In addition, the TGI is 25.3 µM in the experiment on SNB-75 CNS, 22.6 µM in the experiment with UACC-257 melanoma and 20.6 µM in the experiment with UACC-62 melanoma.
On to `CC[C@@]1(O)C(=O)OCc2c1c(Cl)c1n(c2=O)Cc2cc3ccccc3nc2-1`, for which the TGI in the experiment on 786-0 renal is 6.68 µM; with A549 NSCLC, greater than 63.2 µM; in the experiment with CCRF-CEM leukemia it was greater than 29 µM; with COLO 205 colon, greater than 100 µM; in the experiment with HCC-2998 colon, 80.6 µM; in the experiment on HOP-62 NSCLC, 8.03 µM. For the same compound, the total growth inhibition concentration (TGI) was greater than 100 µM in the experiment on MDA-N; 19.3 µM in the experiment with MOLT-4 leukemia; 6.24 µM in the experiment with NCI-H23 lung; 85.8 µM with OVCAR-5 ovarian; greater than 100 µM in the experiment on PC-3 prostate; greater than 61.8 µM in the experiment on SN12C renal. In addition, the figures for the TGI with SNB-75 CNS, in the experiment with UACC-257 melanoma and with UACC-62 melanoma were 12.7 µM, 26.7 µM and 3.38 µM, respectively.
On to `CC(=O)NNC=N/C(C#N)=C(\N)C#N`, for which the total growth inhibition concentration (TGI) with 786-0 renal, with A549 NSCLC, in the experiment on CCRF-CEM leukemia, with COLO 205 colon, in the experiment with HCC-2998 colon and in the experiment on HOP-62 NSCLC was greater than 100 µM in each case. The TGI in the experiment with MDA-N, in the experiment with MOLT-4 leukemia, in the experiment on NCI-H23 lung, with OVCAR-5 ovarian, in the experiment with PC-3 prostate and in the experiment with SN12C renal was greater than 100 µM in each case. In addition, the TGI in the experiment on SNB-75 CNS, with UACC-257 melanoma and in the experiment on UACC-62 melanoma was greater than 100 µM each time.
